US11497785B2, “Oral anti-parasitic composition” (Mars, Incorporated, priority 2013, dated 2022)
Values after ≈ are worked out from the molar mass of the structure shown.

System: Neospora caninum
Assay: Proliferation assay of Neospora caninum in HFF cells, tritiated uracil incorporation
Assay type: cell-based
Details: positive control, read-out: ICSO
Description: In order to solubilize the essential oils, the oils were diluted in dimethyl sulfoxide (DMSO) and then spread in the cell culture medium (DMEM) that was supplemented with 10% fetal calf serum (D10). DMSO was also used at a final concentration not exceeding 0.1%. Separate cultures of both parasites, Toxoplasma gondii and Neospora caninum, were prepared in vitro in human cell type HFF (Human Foreskin Fibroblasts), grown at 37° C. under 5% CO2 in a D10 medium. Both cultures were similar, the inoculum used for the various tests were the same, […] per well. It was observed that growing Neospora caninum is slower than that of Toxoplasma gondii.
Proliferation of the parasite in the cells is measured by counting the specific radioactivity of the incorporated tritiated uracil and compared to the control without essential oil (100% proliferation). The test is performed in 24-well plates and the whole test lasts about 24 hours. The positive control is achieved using pyrimethamine (ICSO: 0.1 μg/mL).
Values represent inhibition of proliferation.
The inhibition of proliferation was measured by incorporating tritiated uracil in both Toxoplasma gondii and Neospora caninum and the viability of HFF cells was assessed using MTT assay.

IC50: 0.1 µg/mL (≈ 0.402 µM)
Structure (SMILES): CCc1nc(N)nc(N)c1-c1ccc(Cl)cc1 [pyrimethamine]
